Results reported in patent US9439920B2, “Composition for the management of nausea and vomiting” (Duchesnay Inc., priority 2013, dated 2016).

Columns and labels:
Format in all cases: in vivo, human
[1] = Another study with different doses of R5P (5, 10 or 20 mg) in healthy women; settings: 8 healthy women, controls not administered with R5P
Protocol: In another study, different doses of R5P were tested: 5, 10 or 20 mg of R5P (i.e. equivalent to the formulations administered to Treatment group C above, with the exception that 5, 10 or 20 mg of R5P was used rather than 40 mg R5P; 8 healthy women for each dose), and the PLP levels were compared to those measured in control healthy women not administered with R5P (24 subjects, equivalent to Treatment group A above).

[2] = Randomized controlled bioavailability study in healthy women, three way cross over (Example 2)
Text: Three Way Cross Over Design.
Bioavailability; Tmax, Cmax and AUC0-t between each treatment.

[3] = tested on: pregnant women suffering from nausea and vomiting of pregnancy; assay: Randomized controlled efficacy trial of Diclectin vs. placebo in pregnant women: plasma levels vs PUQE score; settings: pregnant women treated with Diclectin for 14 days
Protocol: A randomized controlled efficacy trial of Diclectin® vs. placebo in pregnant women was carried out as follows, with the results shown in FIG. 1.
To assess the plasma levels of Doxylamine and PLP and the severity of nausea and vomiting of pregnancy symptoms in pregnant women treated with Diclectin®.
The demographic and medical characteristics of the subjects are as described in Koren et al., Am J Obstet Gynecol 2010; 203(6):571.e1-7.
The study design is as described in Koren et al., 2010, supra. Briefly, a randomized, double-blind, multicenter placebo controlled trial studying pregnant women suffering from nausea and vomiting of pregnancy, analyzed by intention to treat. Women received Diclectin (n=131) or placebo (n=125) for 14 days. Nausea and vomiting of pregnancy symptoms were evaluated daily using the pregnancy unique quantification of emesis scale (PUQE-24, Ebrahimi et al., J Obstet Gynaecol Can. 2009 September; 31(9):803-7).

[4] = co-administration of 40 mg of R5P

effect on PLP levels relative to controls ([1]; 5 mg of R5P)	effect on PLP levels relative to controls ([1]; 10 mg of R5P)	PLP levels at 12h [2, 4]	SMILES	effect on pharmacokinetics of PLP relative to controls ([1]; 20 mg of R5P)	general improvement in the pharmacokinetic profile of PLP ([2]; administration of R5P)	increase in the plasma level of PLP (AUC 0-2 h) following administration of Pyridoxine [2, 4]	PLP concentration (using AUC) over the period 0-12 h ([2]; plasma, healthy women, fasted, compared with Diclectin (PA_DR), one-way ANOVA P>0.05)	relation of average plasma concentration to severity of NVP (PUQE score) [3]
no significant effect	no significant effect	does not significantly affect	Cc1cc2nc3c(=O)[nH]c(=O)nc-3n(C[C@H](O)[C@H](O)[C@H](O)COP(=O)(O)O)c2cc1C [R5P, riboflavin-5-phosphate]	some improvement in the pharmacokinetics of PLP	less inter-subject variations and decreased time to reach steady-state PLP levels	faster increase in the plasma level of PLP	did not increase PLP levels significantly	
			Cc1ncc(COP(=O)(O)O)c(C=O)c1O [PLP, Pyridoxal 5-phosphate]					correlates with a decrease in the severity of the NVP
			CN(C)CCOC(C)(c1ccccc1)c1ccccn1 (stereo not drawn) [Doxylamine, reference compound]					correlates with a decrease in the severity of the NVP
